Results from PubChem BioAssay (NCI).
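Abbreviation: GI50, concentration required for 50% inhibition of growth. Definition used: TGI = concentration required for complete inhibition of growth.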

How the values were obtained:
Experiment in all cases: inhibition of tumour cell growth, NCI panel, 384-well format
SK-MEL-5 melanoma = tested on: SK-MEL-5 melanoma
HCT-15 colon = tested on: HCT-15 colon
HOP-92 NSCLC = tested on: HOP-92 NSCLC
RXF 393 renal = tested on: RXF 393 renal
SK-OV-3 ovarian = tested on: SK-OV-3 ovarian
COLO 205 colon = tested on: COLO 205 colon
CCRF-CEM leukemia = tested on: CCRF-CEM leukemia
DU-145 prostate = tested on: DU-145 prostate
SF-268 CNS = tested on: SF-268 CNS
BT-549 breast = tested on: BT-549 breast
MDA-MB-435 melanoma = tested on: MDA-MB-435 melanoma
U251 glioblastoma = tested on: U251 glioblastoma
UACC-62 melanoma = tested on: UACC-62 melanoma

## O=C(c1cc(Cc2n[nH]c(=O)c3ccccc23)ccc1F)N1CCN(C(=O)C2CC2)CC1
SK-MEL-5 melanoma
  GI50: 35 µM
  TGI: > 73.1 µM
HCT-15 colon
  GI50: > 100 µM
  TGI: > 100 µM
HOP-92 NSCLC
  GI50: 57.3 µM
  TGI: > 100 µM
RXF 393 renal
  GI50: > 37.6 µM
  TGI: > 79.6 µM
SK-OV-3 ovarian
  GI50: > 55.5 µM
  TGI: > 100 µM
COLO 205 colon
  GI50: > 77 µM
  TGI: > 100 µM
CCRF-CEM leukemia
  GI50: 6.5 µM
  TGI: > 100 µM
DU-145 prostate
  GI50: 53.5 µM
  TGI: > 100 µM
SF-268 CNS
  GI50: 24.9 µM
  TGI: > 90.3 µM
BT-549 breast
  GI50: 17.2 µM
  TGI: > 75.8 µM
MDA-MB-435 melanoma
  GI50: > 100 µM
  TGI: > 100 µM
U251 glioblastoma
  GI50: 27.3 µM
  TGI: > 100 µM
UACC-62 melanoma
  GI50: > 95.7 µM
  TGI: > 100 µM
